According to ChEMBL document CHEMBL1250531, “Comparative nuclease and anti-cancer properties of the naturally occurring malabaricones” (Bioorg Med Chem, 2010):
Values belong to the molecule of their own block, whether it stands above or below them. Active and inactive are the calls of the source. The calls are words filed in the database; no cut-off is given here.

Assays:
[1] = system: Nucleic Acid; experiment: Induction of Escherichia coli pBR322 DNA cleavage assessed as linear form of DNA at 25 uM after 45 mins by agarose gel electrophoresis in presence of copper; format: nucleic-acid assay
[2] = system: Nucleic Acid; experiment: Induction of Escherichia coli pBR322 DNA cleavage assessed as open circular form of DNA at 25 uM after 45 mins by agarose gel electrophoresis in presence of copper; format: nucleic-acid assay
[3] = system: Nucleic Acid; experiment: Induction of Escherichia coli pBR322 DNA cleavage at 25 uM after 45 mins under anoxic condition by agarose gel electrophoresis in presence of copper; format: nucleic-acid assay
[4] = system: MCF7; experiment: Cytotoxicity against human MCF7 cells after 72 hrs by MTT assay; format: functional, cell-based; settings: for IC50: MCF7, 72 h
[5] = system: MCF7; experiment: Cytotoxicity against human MCF7 cells at 100 uM after 72 hrs by MTT assay; format: functional, cell-based
[6] = system: MCF7; experiment: Ratio of compound IC50 to curcumin IC50 for human MCF7 cells; format: functional
[7] = system: MCF7; experiment: Cytotoxicity against human MCF7 cells at 50 uM after 72 hrs by MTT assay relative to control; format: functional
[8] = system: Nucleic Acid; experiment: Induction of Escherichia coli pBR322 DNA cleavage assessed as supercoiled form of DNA at 25 uM after 45 mins by agarose gel electrophoresis in presence of 100 uM of copper and neocuproine; format: nucleic-acid assay
[9] = system: Nucleic Acid; experiment: Induction of Escherichia coli pBR322 DNA cleavage at 5 to 10 uM uM after 45 mins by agarose gel electrophoresis in presence of 100 uM of copper; format: nucleic-acid assay
[10] = system: Nucleic Acid; experiment: Induction of Escherichia coli pBR322 DNA cleavage at 25 uM after 45 mins by agarose gel electrophoresis in presence of 100 uM of copper and 250 uM of neocuproine; format: nucleic-acid assay
[11] = system: Nucleic Acid; experiment: Induction of Escherichia coli pBR322 DNA cleavage assessed as supercoiled form of DNA at 25 uM after 45 mins by agarose gel electrophoresis in presence of 100 uM of copper and sodium azide; format: nucleic-acid assay
[12] = system: MCF7; experiment: Induction of ROS production in human MCF7 cells at 15 uM after 3 hrs by DCFDA assay relative to control; format: functional
[13] = system: MCF7; experiment: Induction of morphological changes in human MCF7 cells at 2.5 to 40 uM after 24 hrs by phase contrast microscopic analysis; format: functional, cell-based
[14] = Induction of hydrogen peroxide production at 100 uM after 20 mins by horse radish peroxidase assay relative to control in presence of 100 uM of copper; format: physicochemical
[15] = system: Nucleic Acid; experiment: Induction of Escherichia coli pBR322 DNA cleavage at 25 uM after 45 mins by agarose gel electrophoresis in presence of 100 uM of copper and 100 mM of DMSO; format: nucleic-acid assay
[16] = system: Nucleic Acid; experiment: Induction of Escherichia coli pBR322 DNA cleavage at 25 uM after 45 mins by agarose gel electrophoresis in presence of 100 uM of copper and 250 uM of EDTA; format: nucleic-acid assay
[17] = system: MCF7; experiment: Cytotoxicity against human MCF7 cells assessed as cell viability at 5 uM after 72 hrs by MTT assay; format: functional; settings: MCF7, 72 h, read-out: Activity
[18] = system: MCF7; experiment: Induction of apoptosis in human MCF7 cells assessed as DNA ladder formation after 24 hrs using ethidium bromide staining by agarose gel electrophoresis; format: functional, cell-based
[19] = system: Nucleic Acid; experiment: Induction of Escherichia coli pBR322 DNA cleavage at 25 uM after 45 mins by agarose gel electrophoresis in presence of 100 uM of copper and 100 mM of sodium azide; format: nucleic-acid assay
[20] = system: Nucleic Acid; experiment: Induction of Escherichia coli pBR322 DNA cleavage at 25 uM after 45 mins by agarose gel electrophoresis in presence of 100 uM of copper and 500 U/ml of catalase; format: nucleic-acid assay
[21] = system: Nucleic Acid; experiment: Induction of Escherichia coli pBR322 DNA cleavage at 25 uM after 45 mins by agarose gel electrophoresis in presence of 100 uM of copper and 500 U/ml of superoxide dismutase; format: nucleic-acid assay
[22] = system: Calf thymus DNA; experiment: Binding affinity to calf thymus DNA at 50 uM after 5 mins by absorption spectroscopic analysis; format: nucleic-acid assay; settings: Bos taurus
[23] = system: Nucleic Acid; experiment: Induction of Escherichia coli pBR322 DNA cleavage assessed as supercoiled form of DNA at 25 uM after 45 mins by agarose gel electrophoresis in presence of 100 uM of copper and catalase; format: nucleic-acid assay
[24] = system: Nucleic Acid; experiment: Induction of Escherichia coli pBR322 DNA cleavage assessed as open circular form of DNA at 25 uM after 30 mins by agarose gel electrophoresis in presence of 100 uM of copper; format: nucleic-acid assay
[25] = system: Nucleic Acid; experiment: Induction of Escherichia coli pBR322 DNA cleavage assessed as supercoiled form of DNA at 25 uM after 45 mins by agarose gel electrophoresis in presence of 100 uM of copper; format: nucleic-acid assay
[26] = system: Nucleic Acid; experiment: Induction of Escherichia coli pBR322 DNA cleavage assessed as supercoiled form of DNA at 25 uM after 45 mins by agarose gel electrophoresis in presence of 100 uM of copper and EDTA; format: nucleic-acid assay
[27] = Induction of copper chelation assessed as compound copper complex formation at 25 uM by absorption spectroscopic analysis; format: physicochemical
[28] = system: Nucleic Acid; experiment: Induction of Escherichia coli pBR322 DNA cleavage at 25 uM after 45 mins by agarose gel electrophoresis; format: nucleic-acid assay
[29] = system: Nucleic Acid; experiment: Induction of Escherichia coli pBR322 DNA cleavage at 25 uM after 45 mins by agarose gel electrophoresis in presence of 100 uM of copper and 250 U/ml of superoxide dismutase; format: nucleic-acid assay
[30] = system: Calf thymus DNA; experiment: Binding affinity to calf thymus DNA assessed as increase of ethidium bromide fluorescence quenching at 0.2 mM after 30 mins; format: nucleic-acid assay; settings: Bos taurus
[31] = system: MCF7; experiment: Induction of ROS production in human MCF7 cells at 10 uM after 3 hrs by DCFDA assay relative to control; format: functional
[32] = system: MCF7; experiment: Induction of ROS production in human MCF7 cells at 1 mM after 3 hrs by DCFDA assay relative to control; format: functional
[33] = system: MCF7; experiment: Cytotoxicity against human MCF7 cells assessed as cell viability at 5 uM after 72 hrs by MTT assay pretreated with 1 mM of NAC relative to control; format: functional
[34] = system: Calf thymus DNA; experiment: Binding affinity to calf thymus DNA assessed as increase of viscosity of DNA solution at 0.2 mM after 30 mins; format: nucleic-acid assay; settings: Bos taurus
[35] = system: MCF7; experiment: Induction of ROS production in human MCF7 cells after 3 hrs by DCFDA assay; format: functional, cell-based
[36] = system: Nucleic Acid; experiment: Induction of Escherichia coli pBR322 DNA cleavage at 25 uM after 45 mins by agarose gel electrophoresis in presence of <100 uM of copper; format: nucleic-acid assay
[37] = Induction of superoxide radical production at 100 uM after 20 mins by NBT reduction assay relative to control in presence of 100 uM of copper; format: physicochemical
[38] = system: Nucleic Acid; experiment: Induction of Escherichia coli pBR322 DNA cleavage at 25 uM after 45 mins by agarose gel electrophoresis in presence of 100 uM of copper and 500 mM of mannitol; format: nucleic-acid assay
[39] = system: Nucleic Acid; experiment: Induction of Escherichia coli pBR322 DNA cleavage at 25 uM after 45 mins by agarose gel electrophoresis in presence of 100 uM of copper and 100 mM of mannitol; format: nucleic-acid assay

Activity [1]: inactive | Activity [2]: Active | Activity [3]: inactive
Compound: O=C(CCCCCCCCc1ccc2c(c1)OCO2)c1c(O)cccc1O
IC50 [4]: 15.7 µM

Compound: C=CCc1ccc(O)c(O)c1
Activity [5]: inactive

Activity [2]: Active
Compound: O=C(CCCCCCCCc1ccc(O)cc1)c1c(O)cccc1O

Compound: COc1cc(/C=C/C(=O)CC(=O)/C=C/c2ccc(O)c(OC)c2)ccc1O [CURCUMIN]
fold change (FC) [6]: 4 | IC50 [4]: 24.5 µM

Activity [1]: Active | Activity [2]: inactive | Activity [3]: inactive
Compound: O=C(CCCCCCCCc1ccccc1)c1c(O)cccc1O [MALABARICONE A]
Activity [4]: Dose-dependent effect | Activity [7]: 12%

Activity [8]: 98.5% | Activity [9]: Active | Activity [10]: inactive | Activity [11]: 93.1% | Activity [14]: 85% | Activity [15]: Active | Activity [1]: Active | Activity [16]: inactive | Activity [19]: inactive | Activity [20]: inactive | Activity [2]: Active | Activity [21]: Active | Activity [22]: Active | Activity [23]: 82% | Activity [24]: Active | Activity [25]: inactive | Activity [26]: 76.2% | Activity [27]: Active | Activity [28]: inactive | Activity [29]: Active | Activity [30]: 24.4% | Activity [34]: Active | Activity [36]: inactive | Activity [37]: 42% | Activity [38]: Active | Activity [39]: Active
Compound: O=C(CCCCCCCCc1ccc(O)c(O)c1)c1c(O)cccc1O [MALABARICONE C]
Activity [12]: 50% | Activity [13]: Active | viability at 5 µM [17]: 45.3% | Activity [18]: Dose-dependent effect | Activity [31]: 26% | Activity [32]: 71% | Activity [33]: 75.32% | IC50 [4]: 5.26 µM | Activity [35]: Dose-dependent effect
